Assay results from ChEMBL document CHEMBL1158199, “Constituents of Ardisia japonica and their in vitro anti-HIV activity” (J Nat Prod, 1996).
≈ marks a conversion by molar mass, not a printed value.

Key:
[1] = test system: Human immunodeficiency virus 1; test: Antiviral activity against HIV1 MN in human C8166 cells assessed as reduction of antigen gp120 production by ELISA; type: functional, organism-based; conditions: Human immunodeficiency virus 1, MN
[2] = Cytotoxicity against human C8166 cells by XTT assay; type: cell-based; conditions: read-out: TC50 (the source's name)
[3] = Selectivity index, ratio of […] for human […] cells
[4] = Inhibition of monoclonal antibody ADP358/HIV1 gp120 interaction at 500 mg/mL
[5] = Inhibition of monoclonal antibody ADP358/HIV1 gp120 interaction at 100 mg/mL
[6] = Inhibition of monoclonal antibody ADP358/HIV1 gp120 interaction at 20 mg/mL
[7] = Inhibition of monoclonal antibody ADP358/HIV1 gp120 interaction at 4 mg/mL
[8] = Inhibition of monoclonal antibody ADP358/HIV1 gp120 interaction at 0.8 mg/mL
[9] = Inhibition of HIV1 recombinant gp120/sCD4 interaction by ELISA
[10] = test system: Human immunodeficiency virus 1; test: Antiviral activity against HIV1 3B in human C8166 cells assessed as neutralization of virus infectivity treated prior infection measured after 60 mins at 37 degC; type: functional
[11] = Inhibition of monoclonal antibody ADP358/HIV1 gp120 interaction at 400 mg/mL
[12] = Inhibition of monoclonal antibody ADP358/HIV1 gp120 interaction at 80 mg/mL
[13] = Inhibition of monoclonal antibody ADP358/HIV1 gp120 interaction at 16 mg/mL
[14] = Inhibition of monoclonal antibody ADP358/HIV1 gp120 interaction at 3.2 mg/mL

| EC50 [1] | inhibition [4] | inhibition [5] | inhibition [6] | inhibition [7] | inhibition [8] | Activity [9] | inhibition [11] | inhibition [12] | inhibition [13] | inhibition [14] | SMILES | CC50 [2] | Selectivity Index [3] | Activity [10] |
| --- | --- | --- | --- | --- | --- | --- | --- | --- | --- | --- | --- | --- | --- | --- |
| 200 µg/mL (≈ 561 µM) |  |  |  |  |  |  |  |  |  |  | COc1cc2c(c(OC)c1OC)[C@H]1O[C@@H](CO)[C@H](O)[C@@H](O)[C@@H]1OC2=O | 250 µg/mL (≈ 702 µM) | 1.25 |  |
| 40 µg/mL (≈ 122 µM) | 92% | 84% | 62% | 39% | 0% |  |  |  |  |  | COc1c(O)cc2c(c1O)[C@@H]1O[C@H](CO)[C@@H](O)[C@H](O)[C@H]1OC2=O [BERGENIN] | > 1000 µg/mL | >25 |  |
| 20 µg/mL (≈ 63.6 µM) |  |  |  |  |  | Dose-dependent effect | 84% | 69% | 57% | 33% | O=C1O[C@H]2[C@H](O)[C@@H](O)[C@H](CO)O[C@@H]2c2c1cc(O)c(O)c2O [NORBERGENIN] | > 500 µg/mL | >25 | 99% |
